Residues, ends and D or L forms follow the SMILES beside them. *: point of attachment. Fmoc = O=C(OCC1c2ccccc2-c2ccccc21)*
Key:
[1] = test system: purified AEP (legumain from pig kidney); test: Digestion of TTCF with purified AEP in the presence of tetrapeptides; format: biochemical; conditions: 0.2 mg/ml peptide; Fig 3a
Experimental: The invention will now be described by reference to the following Examples and Figures wherein • Figure 1: Processing of TTCF by a leupeptin-insensitive cysteine endopeptidase activity. (a) TTCF was digested in vitro in the presence of disrupted lysosomes (1-2 µg) in the presence or absence of iodoacetamide (1 mM), leupeptin, E64 or pepstatin (each at 0.1 mg/ml). Digestions were in 0.1 M NH4 acetate at pH 4.5 or Na2HPO4, pH 6.0 or 7.0. After 4 hours at 37°C, the reactions were separated by Tris-tricine SDS-PAGE and stained with Coomassie Blue. (b) Cleavage sites: TTCF digestion products were separated by SDS PAGE and electrophoretically transferred to nitrocellulose membrane. Individual fragments numbered 1-6 were subjected to 5 cycles of Edman degradation. N-terminal sequence obtained is shown in bold following upstream residues from TTCF (tetanus toxin numbering). The N-terminal sequence of His-tagged TTCF was obtained for fragments 1 and 3. (c) Residues Asn 1184 and Glu 1184 in TTCF were mutated to alanine (see Methods) and digestions performed as before. The mutation abolishes cleavage at the mutated site but not at the first site (doublet at 47 kD). In this experiment cleavage of the third site was minimal. • Figure 2: TTCF is processed by an asparaginyl endopeptidase. (a) Chromatography of the TTCF processing activity on Mono-S resin. Fractions eluted by NaCl gradient were incubated with the substrates Z-Ala-Ala-Asn-NHMec or Z-Phe-Arg-NHMec in the presence or absence of E64 (trans-epoxysuccinyl-L-leucylamido-(4-guanidino)butane). […] (b) Fractions as above were incubated with 10 µg TTCF in the presence or absence of E64 for 4 hours at 37°C prior to SDS-PAGE analysis. (c) Each fraction was analysed by SDS-PAGE and Western blotting. Electrophoretically transferred material was probed with an affinity purified antiserum raised against the peptide KGIGSGKVLKSGPQC from human legumain^1. • Figure 3: Peptide inhibitors of AEP block asparaginyl endopeptidase activity and TTCF processing in vitro and in vivo. […] Release of 7-amino-4-methyl coumarin was measured after 10, 20 or 30 minutes. […] At different times the cells were washed, fixed in 0.05 % glutaraldehyde and antigen presentation measured using proliferation of different autologous TTCF-specific T cell clones. c, AEP pre-processing of TTCF speeds antigen presentation. […] Presentation was measured after 60 minutes of antigen pulsing using EBV B cells.
We decided to test the possibility that high concentrations of asparagine containing peptides might act as competitive inhibitors. […] To establish that inhibition of AEP was specific, we measured the hydrolysis of different synthetic peptide substrates in the presence and absence of these tetrapeptides.

[2] = test system: peripheral blood mononuclear cells (PBMC) / autologous TTCF specific T cell clones; test: TTCF antigen presentation by PBMC, read out as proliferation of autologous T cell clones; format: cell-based, human; conditions: PBMC, 1 mg/ml peptide, between 30 and 60 minutes of antigen pulsing; Fig 9a
Experimental: The invention will now be described by reference to the following Examples and Figures wherein • Figure 1: Processing of TTCF by a leupeptin-insensitive cysteine endopeptidase activity. (a) TTCF was digested in vitro in the presence of disrupted lysosomes (1-2 µg) in the presence or absence of iodoacetamide (1 mM), leupeptin, E64 or pepstatin (each at 0.1 mg/ml). Digestions were in 0.1 M NH4 acetate at pH 4.5 or Na2HPO4, pH 6.0 or 7.0. After 4 hours at 37°C, the reactions were separated by Tris-tricine SDS-PAGE and stained with Coomassie Blue. (b) Cleavage sites: TTCF digestion products were separated by SDS PAGE and electrophoretically transferred to nitrocellulose membrane. Individual fragments numbered 1-6 were subjected to 5 cycles of Edman degradation. N-terminal sequence obtained is shown in bold following upstream residues from TTCF (tetanus toxin numbering). The N-terminal sequence of His-tagged TTCF was obtained for fragments 1 and 3. (c) Residues Asn 1184 and Glu 1184 in TTCF were mutated to alanine (see Methods) and digestions performed as before. The mutation abolishes cleavage at the mutated site but not at the first site (doublet at 47 kD). In this experiment cleavage of the third site was minimal. • Figure 2: TTCF is processed by an asparaginyl endopeptidase. (a) Chromatography of the TTCF processing activity on Mono-S resin. Fractions eluted by NaCl gradient were incubated with the substrates Z-Ala-Ala-Asn-NHMec or Z-Phe-Arg-NHMec in the presence or absence of E64 (trans-epoxysuccinyl-L-leucylamido-(4-guanidino)butane). […] (b) Fractions as above were incubated with 10 µg TTCF in the presence or absence of E64 for 4 hours at 37°C prior to SDS-PAGE analysis. (c) Each fraction was analysed by SDS-PAGE and Western blotting. Electrophoretically transferred material was probed with an affinity purified antiserum raised against the peptide KGIGSGKVLKSGPQC from human legumain^1. • Figure 3: Peptide inhibitors of AEP block asparaginyl endopeptidase activity and TTCF processing in vitro and in vivo. (a) TTCF was digested with purified AEP (legumain from pig kidney) in the presence or absence of 0.2 mg/ml of the peptides indicated. […] (b) Purified AEP or a crude lysosomal protease mixture were incubated with Z-Ala-Ala-Asn-NHMec, Z-Phe-Arg-NHMec (cathepsins L&B) or Z-Val-Val-Ala NHMec (cathepsin S) in the presence of increasing concentrations of AENK or AEQK. Release of 7-amino-4-methyl coumarin was measured after 10, 20 or 30 minutes. […] At different times the cells were washed, fixed in 0.05 % glutaraldehyde and co-cultured with autologous TTCF specific T cell clones. […] Proteins obtained from commercial sources, as described in the literature or custom peptides were digested with purified pig kidney legumain at pH 5.5 in the presence of 1 mM DTT. […] When present peptide was maintained during antigen pulsing at 1 mg/ml (a) or 2 mg/ml (b). At different times the cells were washed, fixed in 0.05 % glutaraldehyde and antigen presentation measured using proliferation of different autologous TTCF-specific T cell clones. c, AEP pre-processing of TTCF speeds antigen presentation. […] Presentation was measured after 60 minutes of antigen pulsing using EBV B cells.
If AEP plays a role in TTCF processing in antigen presenting cells then sufficiently high levels of the competing AENK peptide might be expected to interfere with normal class II MHC loading of TTCF epitopes. Following a 15 minute preincubation with or without tetrapeptides, freshly isolated peripheral blood mononuclear cells (PBMC) were incubated with TTCF antigen in the continued presence or absence of the peptides. At different times, the cells were washed, fixed and then co-cultured with different autologous T cell clones to assess expression of different peptide/MHC complexes. […] At later times there was some recovery of presentation of these epitopes as expected for a competitive inhibitor. […]

[3] = test system: EBV-transformed B cells / autologous TTCF-specific T cell clones; test: TTCF antigen presentation by EBV-transformed B cells, read out as proliferation of autologous T cell clones; format: cell-based, human; conditions: EBV-B cells from donor, 2 mg/ml peptide; Fig 9b
Experimental: The invention will now be described by reference to the following Examples and Figures wherein • Figure 1: Processing of TTCF by a leupeptin-insensitive cysteine endopeptidase activity. (a) TTCF was digested in vitro in the presence of disrupted lysosomes (1-2 µg) in the presence or absence of iodoacetamide (1 mM), leupeptin, E64 or pepstatin (each at 0.1 mg/ml). Digestions were in 0.1 M NH4 acetate at pH 4.5 or Na2HPO4, pH 6.0 or 7.0. After 4 hours at 37°C, the reactions were separated by Tris-tricine SDS-PAGE and stained with Coomassie Blue. (b) Cleavage sites: TTCF digestion products were separated by SDS PAGE and electrophoretically transferred to nitrocellulose membrane. Individual fragments numbered 1-6 were subjected to 5 cycles of Edman degradation. N-terminal sequence obtained is shown in bold following upstream residues from TTCF (tetanus toxin numbering). The N-terminal sequence of His-tagged TTCF was obtained for fragments 1 and 3. (c) Residues Asn 1184 and Glu 1184 in TTCF were mutated to alanine (see Methods) and digestions performed as before. The mutation abolishes cleavage at the mutated site but not at the first site (doublet at 47 kD). In this experiment cleavage of the third site was minimal. • Figure 2: TTCF is processed by an asparaginyl endopeptidase. (a) Chromatography of the TTCF processing activity on Mono-S resin. Fractions eluted by NaCl gradient were incubated with the substrates Z-Ala-Ala-Asn-NHMec or Z-Phe-Arg-NHMec in the presence or absence of E64 (trans-epoxysuccinyl-L-leucylamido-(4-guanidino)butane). […] (c) Each fraction was analysed by SDS-PAGE and Western blotting. […] Release of 7-amino-4-methyl coumarin was measured after 10, 20 or 30 minutes. […] At different times the cells were washed, fixed in 0.05 % glutaraldehyde and antigen presentation measured using proliferation of different autologous TTCF-specific T cell clones. c, AEP pre-processing of TTCF speeds antigen presentation. […] Presentation was measured after 60 minutes of antigen pulsing using EBV B cells. […]

**Q.** For `C[C@H](NC(=O)OCC1c2ccccc2-c2ccccc21)C(=O)N[C@@H](CCC(=O)O)C(=O)N[C@@H](CCC(N)=O)C(=O)N[C@@H](CCCCN)C(N)=O` [AEQK] (Fmoc-AEQK-NH2), which “inhibition of processing of TTCF by AEP” value [1] is on record?
**A.** did not inhibit

**Q.** And the “presentation to most clones (eg AK 5, 90 & 6) at early times” value [2]?
**A.** detectable

**Q.** What about the “antigen presentation by EBV-B cells” value [3] of the same molecule?
**A.** virtually no effect
